According to article PMC11962085, “Molecular mechanisms of urate transport by the native human URAT1 and its inhibition by anti-gout drugs” (Cell Discovery, 2025):
Residue numbers refer to the chain shown, from its start.

Experiments:
hURAT1 F360A = target: T1, hURAT1 F360A (Homo sapiens, UniProt Q96S37, F360A); experiment: 14C-urate uptake inhibition assay, hURAT1 F360A mutant in HEK293 cells; format: cell-based; conditions: for IC50: F360A hURAT1, HEK293 cells, 14C-urate uptake, n=3-8, read-out: pIC50 (Mean ± SEM) (converted); for effect of alanine substitution at F360 on inhibition: F360A vs wild-type URAT1, in words
T1 construct: Flag; expressed in transfected cells; host or cells: HEK293
T1 sequence (Q96S37 1-553 F360A): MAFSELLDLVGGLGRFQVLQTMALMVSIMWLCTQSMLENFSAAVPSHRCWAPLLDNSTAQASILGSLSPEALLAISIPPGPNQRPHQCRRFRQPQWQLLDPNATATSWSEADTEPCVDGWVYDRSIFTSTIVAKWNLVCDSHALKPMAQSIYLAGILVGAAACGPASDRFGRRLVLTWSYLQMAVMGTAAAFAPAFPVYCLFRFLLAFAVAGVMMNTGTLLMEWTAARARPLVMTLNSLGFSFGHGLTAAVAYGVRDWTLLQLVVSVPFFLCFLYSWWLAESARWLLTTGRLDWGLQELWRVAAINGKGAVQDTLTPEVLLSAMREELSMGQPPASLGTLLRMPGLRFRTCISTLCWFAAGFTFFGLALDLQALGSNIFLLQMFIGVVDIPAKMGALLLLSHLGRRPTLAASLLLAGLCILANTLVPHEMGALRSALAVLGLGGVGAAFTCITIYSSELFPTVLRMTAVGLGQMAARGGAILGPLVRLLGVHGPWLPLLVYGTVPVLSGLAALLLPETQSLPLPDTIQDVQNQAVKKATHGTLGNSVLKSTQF
Experimental: (§1) The cells were seeded at a density of 30,000 cells per well in Isoplate-96 plates (Perkin Elmer).

hURAT1 F364Y-F365Y = target: T2, hURAT1 F364Y-F365Y (Homo sapiens, UniProt Q96S37, F364Y/F365Y); experiment: 14C-urate uptake inhibition assay, hURAT1 F364Y-F365Y mutant in HEK293 cells; format: cell-based; conditions: for IC50: F364Y-F365Y hURAT1, HEK293 cells, 14C-urate uptake, n=3-8, N.A., not active, read-out: pIC50 (Mean ± SEM) (converted)
T2 construct: Flag; expressed in transfected cells; host or cells: HEK293
T2 sequence (Q96S37 1-553 F364Y/F365Y): T1 sequence (Q96S37 1-553 F360A) with A360F, F364Y, F365Y
Experimental: as §1

hURAT1 R477K = target: T3, hURAT1 R477K (Homo sapiens, UniProt Q96S37, R477K); experiment: 14C-urate uptake inhibition assay, hURAT1 R477K mutant in HEK293 cells; format: cell-based; conditions: for IC50: R477K hURAT1, HEK293 cells, 14C-urate uptake, n=3-8, read-out: pIC50 (Mean ± SEM) (converted)
T3 construct: Flag; expressed in transfected cells; host or cells: HEK293
T3 sequence (Q96S37 1-553 R477K): T1 sequence (Q96S37 1-553 F360A) with A360F, R477K
Experimental: as §1

hURAT1 F449A = target: T4, hURAT1 F449A (Homo sapiens, UniProt Q96S37, F449A); experiment: 14C-urate uptake inhibition assay, hURAT1 F449A mutant in HEK293 cells; format: cell-based
T4 construct: Flag; expressed in transfected cells; host or cells: HEK293
T4 sequence (Q96S37 1-553 F449A): T1 sequence (Q96S37 1-553 F360A) with A360F, F449A
Experimental: as §1

[1] = design: method as in PMID 26378978, PMID 30415602; conditions: high-risk patients; cited from earlier work

In the case of `O=C(c1cc(Cl)c(O)c(Cl)c1)N1CS(=O)(=O)c2ccccc21` [dotinurad], the IC50 (hURAT1 F360A) is reported as 3.16 µM, the “effect of alanine substitution at F360 on inhibition” value (hURAT1 F360A) is reported as “markedly reduces the effectiveness” and the IC50 (hURAT1 F364Y-F365Y) is reported as 0.123 µM. It also gave an IC50 (hURAT1 R477K) of 0.0229 µM.
With `CCc1oc2ccccc2c1C(=O)c1cc(Br)c(O)c(Br)c1` [benzbromarone] the “effect of alanine substitution at F360 on inhibition” value (hURAT1 F360A) was “significantly diminish the inhibitory effectiveness”, the “effect of alanine substitution at F449 on inhibition” value (hURAT1 F449A; F449A vs wild-type URAT1, in words) was “significantly diminish the inhibitory effectiveness” and the “effect of mutation of R477 to lysine on potency” value (hURAT1 R477K; R477K vs wild-type URAT1, in words) was “slightly reduced the potency”.
Work on `CC(C)(Sc1ccncc1-c1ccc(C#N)c2ccccc12)C(=O)O` [verinurad] yielded an IC50 (hURAT1 F360A) of 0.0562 µM, an IC50 (hURAT1 F364Y-F365Y) of 245 µM and an IC50 (hURAT1 F449A; F449A hURAT1, HEK293 cells, 14C-urate uptake, n=3-8, read-out: pIC50 (Mean ± SEM) (converted)) of 0.126 µM. It also gave an IC50 (hURAT1 R477K) of 0.513 µM.
For `O=C(O)CSc1nnc(Br)n1-c1ccc(C2CC2)c2ccccc12` [lesinurad], the “effect of changing F364 and F365 to tyrosine on inhibition” value (hURAT1 F364Y-F365Y; F364Y-F365Y vs wild-type URAT1, in words) was “nearly abolishes the inhibitory effects”.
For `OC[C@H]1O[C@@H](c2ccc(Cl)c(Cc3ccc(O[C@H]4CCOC4)cc3)c2)[C@H](O)[C@@H](O)[C@@H]1O` [empagliflozin], the “relative risk reduction in cardiovascular death” value [1] is listed as 38%.
